The text below walks through data of US7833543B2, “High viscosity liquid controlled delivery system and medical or surgical device” (Durect Corporation, priority 1995, dated 2010).

Holding throughout (assay type): physicochemical
Data set [1] in a line: Dissolution of AZT and ddC SAIB formulations in soft gelatin capsules (USP XXIII Apparatus 2, Method B). How it is done: Zidovudine (AZT) and dideoxycytodine (ddC) suspensions were prepared by mixing drug with SAIB/solvent solutions with and without a cellulosic coexcipient. Approximately 1 g of each formulation was filled into soft gelatin capsules, which were heat sealed. Dissolution profiles were determined using Apparatus 2, Method B (USP XXIII) at a paddle speed of 50 rpm. Individual gelcaps were placed in separate dissolution vessels, and samples of the buffer in each vessel were obtained at 0.25, 0.5, 1, 2, 3, 6, and 24 hours. The samples were analyzed at 266 and 272 nm on a Perkin Elmer Lambda 20 UV-vis spectrophotometer for AZT and ddC drug content, respectively.

Data set [2] can be described thus: In vitro release of paclitaxel and 5-FU from SAIB formulations into buffer (UV-vis). The note with it: for cumulative release: after 7 days, 37° C. How it is done:
Solutions of SAIB in the appropriate solvent were prepared with and without the incorporation of an additive. The active was weighed into a test tube and the SAIB/mixture was added and mixed thoroughly to yield a solution or suspension at the desired drug loading. Single drops of the mixture were precipitated into buffer by injection with standard syringes and needles. Samples were maintained at 37° C. in a shaker, sampled periodically, and analyzed by UV-vis spectrophotometry for active release. Paclitaxel and 5-FU samples were analyzed at 232 nm and 266 nm, respectively.

Data set [3] is described as follows: Aerosol formulation with propellant R-134a: solution formation and sprayability. The protocol: 5.33 g of a 10 wt % solution of bupivacaine in a composition containing 70:30 SAIB/NMP, prepared as described in U.S. Pat. No. 5,747,058, was added to an aerosol container. 14.32 g of propellant R-134a (1,1,1,2-tetrafluoroethane) was added.
5.44 g of a 10 wt % solution of bupivacaine in a composition containing 70:30 SAIB/NMP, prepared as described in U.S. Pat. No. 5,747,058, was added to an aerosol container. 16.55 g. of propellant R-134a (1,1,1,2-tetrafluoroethane) was added.
0.87 g of bupivacaine base was added to an aerosol container. 8.47 g of an SAIB/propylene carbonate solution (70:30) containing 2.5 wt % of a biodegradable polymer (65:35 DLPLG) was added to the container. 0.98 g of ethanol was added to help the drug dissolve. Once dissolved, approximately 16 g of propellant R-134a (1,1,1,2-tetrafluoroethane) was added.

The nature of data set [4]: In vitro release of bupivacaine from precipitated drops into buffer (UV-vis 265 nm). How it is done:
CAPROL 10G4O (decaglycerol tetraoleate) was dissolved in benzyl benzoate at a weight ratio of 50:50. Bupivacaine was dissolved in this mixture at a concentration of 8.75 wt %. Drops weighing approximately 100 mg were precipitated into a test tube containing 40 mL of buffer. Samples of the buffer were removed at specified time points and replaced with fresh buffer. The samples were analyzed by UV-vis spectrophotometry at 265 nm to determine the concentration of bupivacaine in each buffer sample. At 4 hours, less than 7.5 wt % of the bupivacaine in the drop had been released to the buffer. At 48 hours, around 24.0 wt % of the bupivacaine had been released.
The 1,6-hexanediol lactate ε-hydroxycaproic acid produced in Example 1 was dissolved in N-methylpyrrolidone at a weight ratio of 70:30. 10 wt % bupivacaine base was then added to this mixture and dissolved. Drops weighing approximately 100 mg were precipitated into 40 mL buffer. Samples of buffer were removed at specified times and replaced with fresh buffer. Buffer samples were analyzed by UV-vis spectrophotometry at 265 nm to determine the concentration of bupivacaine in each buffer sample. At 4 hours, around 4.1 wt % of the bupivacaine contained in the precipitated drop had been released. At 24 hours, around 8.6 wt % of the bupivacaine had been released.

The nature of data set [5]: Dissolution of SAIB in propellants. The note with it: propellants 134a and 227, levels of 5 and 10 wt %. The protocol:
SAIB was dissolved in propellants 134a (1,1,1,2-tetrafluoroethane) and 227 (1,1,1,2,3,3,3-heptafluoropropane) at levels of 5 and 10 wt %.

As to `Cc1cn([C@H]2C[C@H](N=[N+]=[N-])[C@@H](CO)O2)c(=O)[nH]c1=O` [AZT, Zidovudine], the cumulative percent released in data set [1] (11.1 wt % AZT in 70:30 SAIB/Migylol 810, 2 hours) turned out to be 104.1%; in data set [1] (11.1 wt % AZT in 85:15 SAIB/EtOH, 2 hours), 71.2%; in data set [1] (active loading doubled to 22.2 wt % in 85:15 SAIB/EtOH), 93.8%. Further, the amount released is 25.6% in data set [1] (11.1 wt % AZT in 85:15 SAIB/EtOH + 0.02 wt % CAB, 2 hours) and 7.6% in data set [1] (11.1 wt % AZT in 85:15 SAIB/EtOH + 0.2 wt % CAB, 2 hours).
As to `O=c1[nH]cc(F)c(=O)[nH]1` [Example 5-FU, 5-fluorouracil], the percent released in data set [2] (10 mg/mL 5-FU in 85:15 SAIB/EtOH + 5 wt % Cremophor EL, after two days) turned out to be 106.0%; in data set [2] (10 mg/mL 5-FU in 85:15 SAIB/EtOH, no surfactant, after two days) it was 80.6%. The amount released in data set [2] (10 mg/mL 5-FU in 85:15 SAIB/EtOH + Pluronic L-101, after two days) is listed as 102.0%.
As for `CCCCN1CCCCC1C(=O)Nc1c(C)cccc1C` (stereo not shown) [bupivacaine], the “sprayability of aerosol mixture” value in data set [3] (0.87 g bupivacaine base, 8.47 g SAIB/propylene carbonate (70:30) with 2.5 wt % 65:35 DLPLG, 0.98 g ethanol, approx. 16 g R-134a) is reported as “easily sprayed with no bubbling or foaming”; in data set [3] (5.33 g of 10 wt % bupivacaine in 70:30 SAIB/NMP + 14.32 g propellant R-134a), “easily sprayed with no bubbling or foaming”; in data set [3] (5.44 g of 10 wt % bupivacaine in 70:30 SAIB/NMP + 16.55 g propellant R-134a) it was “easily sprayed with no bubbling or foaming”. Besides, the “bupivacaine contained in the precipitated drop released” value in data set [4] (1,6-hexanediol lactate ε-hydroxycaproic acid (Example 1)/N-methylpyrrolidone 70:30, 10 wt % bupivacaine base, 4 hours) was “around 4.1 wt %”. Moreover, the bupivacaine released result is recorded as “around 8.6 wt %” in data set [4] (1,6-hexanediol lactate ε-hydroxycaproic acid (Example 1)/N-methylpyrrolidone 70:30, 10 wt % bupivacaine base, 24 hours) and “around 24.0 wt %” in data set [4] (CAPROL 10G4O (decaglycerol tetraoleate)/benzyl benzoate 50:50, 8.75 wt % bupivacaine, 48 hours). For the same compound, in data set [4] (CAPROL 10G4O (decaglycerol tetraoleate)/benzyl benzoate 50:50, 8.75 wt % bupivacaine, 4 hours), the “bupivacaine in the drop released to the buffer” value is “less than 7.5 wt %”.
`Nc1ccn([C@H]2CC[C@@H](CO)O2)c(=O)n1` [ddC, dideoxycytodine]: the cumulative percent released is reported as 74.2% in data set [1] (0.225 wt % ddC in 70:30 SAIB/Migylol 810, 2 hours) and 59.5% in data set [1] (0.225 wt % ddC in 85:15 SAIB/EtOH, 2 hours). The amount released in data set [1] (0.225 wt % ddC in 85:15 SAIB/EtOH + 0.5 wt % CAB, 2 hours) is 39.4%; in data set [1] (0.225 wt % ddC in 85:15 SAIB/EtOH + 1.0 wt % CAB, 2 hours), 13.5%.
Regarding `CC(=O)O[C@H]1C(=O)[C@@]2(C)[C@H]([C@H](OC(=O)c3ccccc3)[C@]3(O)C[C@H](OC(=O)[C@H](O)[C@@H](NC(=O)c4ccccc4)c4ccccc4)C(C)=C1C3(C)C)[C@]1(OC(C)=O)CO[C@@H]1C[C@@H]2O` [paclitaxel], the percent released was found to be 77.0% in data set [2] (25 mg/mL paclitaxel in 85:15 SAIB/EtOH + 5 wt % Cremophor EL, after two days in vitro) and 56.0% in data set [2] (25 mg/mL paclitaxel in 85:15 SAIB/EtOH, no surfactant, after two days in vitro). Also, the cumulative release in data set [2] (drug loading 5 mg/mL) is 106.4%; in data set [2] (drug loading 25 mg/mL), 85.9%; in data set [2] (drug loading 50 mg/mL), 33.8%.
With sucrose acetate isobutyrate [SAIB], the “appearance on dissolution in propellants” value in data set [5] is recorded as “Clear solutions were formed”.
